# Key:
# CCRF-CEM = assay: NCI 60-cell drug screen, Leukemia CCRF-CEM; assay type: cell-based, human; conditions: 1.00E−5 Molar
# HL-60(TB) = assay: NCI 60-cell drug screen, Leukemia HL-60(TB); assay type: cell-based, human; conditions: 1.00E−5 Molar
# K-562 = assay: NCI 60-cell drug screen, Leukemia K-562; assay type: cell-based, human; conditions: 1.00E−5 Molar
# MOLT-4 = assay: NCI 60-cell drug screen, Leukemia MOLT-4; assay type: cell-based, human; conditions: 1.00E−5 Molar
# RPMI-8226 = assay: NCI 60-cell drug screen, Leukemia RPMI-8226; assay type: cell-based, human; conditions: 1.00E−5 Molar
# SR = assay: NCI 60-cell drug screen, Leukemia SR; assay type: cell-based, human; conditions: 1.00E−5 Molar
# A549/ATCC = assay: NCI 60-cell drug screen, Non-Small Cell Lung Cancer A549/ATCC; assay type: cell-based, human; conditions: 1.00E−5 Molar
# EKVX = assay: NCI 60-cell drug screen, Non-Small Cell Lung Cancer EKVX; assay type: cell-based, human; conditions: 1.00E−5 Molar
# HOP-62 = assay: NCI 60-cell drug screen, Non-Small Cell Lung Cancer HOP-62; assay type: cell-based, human; conditions: 1.00E−5 Molar
# NCI-H226 = assay: NCI 60-cell drug screen, Non-Small Cell Lung Cancer NCI-H226; assay type: cell-based, human; conditions: 1.00E−5 Molar
# NCI-H23 = assay: NCI 60-cell drug screen, Non-Small Cell Lung Cancer NCI-H23; assay type: cell-based, human; conditions: 1.00E−5 Molar
# NCI-H322M = assay: NCI 60-cell drug screen, Non-Small Cell Lung Cancer NCI-H322M; assay type: cell-based, human; conditions: 1.00E−5 Molar
# NCI-H460 = assay: NCI 60-cell drug screen, Non-Small Cell Lung Cancer NCI-H460; assay type: cell-based, human; conditions: 1.00E−5 Molar
# NCI-H522 = assay: NCI 60-cell drug screen, Non-Small Cell Lung Cancer NCI-H522; assay type: cell-based, human; conditions: 1.00E−5 Molar
# COLO 205 = assay: NCI 60-cell drug screen, Colon Cancer COLO 205; assay type: cell-based, human; conditions: 1.00E−5 Molar
# HCC-2998 = assay: NCI 60-cell drug screen, Colon Cancer HCC-2998; assay type: cell-based, human; conditions: 1.00E−5 Molar
# HCT-116 = assay: NCI 60-cell drug screen, Colon Cancer HCT-116; assay type: cell-based, human; conditions: 1.00E−5 Molar
# HCT-15 = assay: NCI 60-cell drug screen, Colon Cancer HCT-15; assay type: cell-based, human; conditions: 1.00E−5 Molar
# KM12 = assay: NCI 60-cell drug screen, Colon Cancer KM12; assay type: cell-based, human; conditions: 1.00E−5 Molar
# SW-620 = assay: NCI 60-cell drug screen, Colon Cancer SW-620; assay type: cell-based, human; conditions: 1.00E−5 Molar
# SF-295 = assay: NCI 60-cell drug screen, CNS Cancer SF-295; assay type: cell-based, human; conditions: 1.00E−5 Molar
# SF-539 = assay: NCI 60-cell drug screen, CNS Cancer SF-539; assay type: cell-based, human; conditions: 1.00E−5 Molar
# SNB-19 = assay: NCI 60-cell drug screen, CNS Cancer SNB-19; assay type: cell-based, human; conditions: 1.00E−5 Molar
# SNB-75 = assay: NCI 60-cell drug screen, CNS Cancer SNB-75; assay type: cell-based, human; conditions: 1.00E−5 Molar
# U251 = assay: NCI 60-cell drug screen, CNS Cancer U251; assay type: cell-based, human; conditions: 1.00E−5 Molar
# LOX IMVI = assay: NCI 60-cell drug screen, Melanoma LOX IMVI; assay type: cell-based, human; conditions: 1.00E−5 Molar
# MALME-3M = assay: NCI 60-cell drug screen, Melanoma MALME-3M; assay type: cell-based, human; conditions: 1.00E−5 Molar
# M14 = assay: NCI 60-cell drug screen, Melanoma M14; assay type: cell-based, human; conditions: 1.00E−5 Molar
# SK-MEL-2 = assay: NCI 60-cell drug screen, Melanoma SK-MEL-2; assay type: cell-based, human; conditions: 1.00E−5 Molar
# SK-MEL-28 = assay: NCI 60-cell drug screen, Melanoma SK-MEL-28; assay type: cell-based, human; conditions: 1.00E−5 Molar
# SK-MEL-5 = assay: NCI 60-cell drug screen, Melanoma SK-MEL-5; assay type: cell-based, human; conditions: 1.00E−5 Molar
# UACC-62 = assay: NCI 60-cell drug screen, Melanoma UACC-62; assay type: cell-based, human; conditions: 1.00E−5 Molar
# IGROV1 = assay: NCI 60-cell drug screen, Ovarian Cancer IGROV1; assay type: cell-based, human; conditions: 1.00E−5 Molar
# OVCAR-4 = assay: NCI 60-cell drug screen, Ovarian Cancer OVCAR-4; assay type: cell-based, human; conditions: 1.00E−5 Molar
# OVCAR-5 = assay: NCI 60-cell drug screen, Ovarian Cancer OVCAR-5; assay type: cell-based, human; conditions: 1.00E−5 Molar
# OVCAR-8 = assay: NCI 60-cell drug screen, Ovarian Cancer OVCAR-8; assay type: cell-based, human; conditions: 1.00E−5 Molar
# SK-OV-3 = assay: NCI 60-cell drug screen, Ovarian Cancer SK-OV-3; assay type: cell-based, human; conditions: 1.00E−5 Molar
# 786-0 = assay: NCI 60-cell drug screen, Renal Cancer 786-0; assay type: cell-based, human; conditions: 1.00E−5 Molar
# A498 = assay: NCI 60-cell drug screen, Renal Cancer A498; assay type: cell-based, human; conditions: 1.00E−5 Molar
# ACHN = assay: NCI 60-cell drug screen, Renal Cancer ACHN; assay type: cell-based, human; conditions: 1.00E−5 Molar
# RXF 393 = assay: NCI 60-cell drug screen, Renal Cancer RXF 393; assay type: cell-based, human; conditions: 1.00E−5 Molar
# TK-10 = assay: NCI 60-cell drug screen, Renal Cancer TK-10; assay type: cell-based, human; conditions: 1.00E−5 Molar
# UO-31 = assay: NCI 60-cell drug screen, Renal Cancer UO-31; assay type: cell-based, human; conditions: 1.00E−5 Molar
# PC-3 = assay: NCI 60-cell drug screen, Prostate Cancer PC-3; assay type: cell-based, human; conditions: 1.00E−5 Molar
# MCF7 = assay: NCI 60-cell drug screen, Breast Cancer MCF7; assay type: cell-based, human; conditions: 1.00E−5 Molar
# MDA-MB-231/ATCC = assay: NCI 60-cell drug screen, Breast Cancer MDA-MB-231/ATCC; assay type: cell-based, human; conditions: 1.00E−5 Molar
# BT-549 = assay: NCI 60-cell drug screen, Breast Cancer BT-549; assay type: cell-based, human; conditions: 1.00E−5 Molar
# T-47D = assay: NCI 60-cell drug screen, Breast Cancer T-47D; assay type: cell-based, human; conditions: 1.00E−5 Molar
# [1] = test system: 60 kinds of different human cancer cells; assay: NCI 60-cell drug screen, whole panel (One Dose Mean Graph); assay type: cell-based; conditions: mean over the cell lines of the panel; 1.00E−5 Molar
# GBM8401 = assay: MTT assay, GBM8401 tumor cell; conditions: concentration 10 μM, tumor cell
# GBM8901 = assay: MTT assay, GBM8901 tumor cell; conditions: concentration 10 μM, tumor cell
# SVG p12 = assay: MTT assay, SVG p12 normal cell; conditions: concentration 10 μM, normal cell
structure (smiles),measurement,setting,value
"CCSc1nc2ccc3c(c2[nH]1)C(=O)c1ccccc1C3=O [f1-1, 2-(Ethylthio)-1H-anthra[1,2-d]imidazole-6,11-dione]","Growth Percent, CCRF-CEM",CCRF-CEM,36.87%
same,"Growth Percent, HL-60(TB)",HL-60(TB),62.64%
same,"Growth Percent, K-562",K-562,86.29%
same,"Growth Percent, MOLT-4",MOLT-4,100.70%
same,"Growth Percent, RPMI-8226",RPMI-8226,28.52%
same,"Growth Percent, SR",SR,129.31%
same,"Growth Percent, A549/ATCC",A549/ATCC,100.94%
same,"Growth Percent, EKVX",EKVX,43.67%
same,"Growth Percent, HOP-62",HOP-62,96.59%
same,"Growth Percent, NCI-H226",NCI-H226,62.07%
same,"Growth Percent, NCI-H23",NCI-H23,87.41%
same,"Growth Percent, NCI-H322M",NCI-H322M,33.44%
same,"Growth Percent, NCI-H460",NCI-H460,38.83%
same,"Growth Percent, NCI-H522",NCI-H522,78.60%
same,"Growth Percent, COLO 205",COLO 205,71.84%
same,"Growth Percent, HCC-2998",HCC-2998,89.42%
same,"Growth Percent, HCT-116",HCT-116,68.78%
same,"Growth Percent, HCT-15",HCT-15,32.29%
same,"Growth Percent, KM12",KM12,68.26%
same,"Growth Percent, SW-620",SW-620,84.53%
same,"Growth Percent, SF-295",SF-295,100.85%
same,"Growth Percent, SF-539",SF-539,58.58%
same,"Growth Percent, SNB-19",SNB-19,87.90%
same,"Growth Percent, SNB-75",SNB-75,73.34%
same,"Growth Percent, U251",U251,65.03%
same,"Growth Percent, LOX IMVI",LOX IMVI,36.72%
same,"Growth Percent, MALME-3M",MALME-3M,63.33%
same,"Growth Percent, M14",M14,67.07%
same,"Growth Percent, SK-MEL-2",SK-MEL-2,81.65%
same,"Growth Percent, SK-MEL-28",SK-MEL-28,97.72%
same,"Growth Percent, SK-MEL-5",SK-MEL-5,63.93%
same,"Growth Percent, UACC-62",UACC-62,47.64%
same,"Growth Percent, IGROV1",IGROV1,73.41%
same,"Growth Percent, OVCAR-4",OVCAR-4,55.05%
same,"Growth Percent, OVCAR-5",OVCAR-5,85.38%
same,"Growth Percent, OVCAR-8",OVCAR-8,96.82%
same,"Growth Percent, SK-OV-3",SK-OV-3,24.72%
same,"Growth Percent, 786-0",786-0,85.38%
same,"Growth Percent, A498",A498,75.49%
same,"Growth Percent, ACHN",ACHN,37.57%
same,"Growth Percent, RXF 393",RXF 393,99.91%
same,"Growth Percent, TK-10",TK-10,74.09%
same,"Growth Percent, UO-31",UO-31,49.19%
same,"Growth Percent, PC-3",PC-3,53.79%
same,"Growth Percent, MCF7",MCF7,43.81%
same,"Growth Percent, MDA-MB-231/ATCC",MDA-MB-231/ATCC,84.79%
same,"Growth Percent, BT-549",BT-549,55.80%
same,"Growth Percent, T-47D",T-47D,30.78%
same,"Growth Percent, Mean",[1],67.96%
same,Cell survival rate (%) GBM8401,GBM8401,42 ± 20%
same,Cell survival rate (%) GBM8901,GBM8901,58 ± 7%
same,Cell survival rate (%) SVG p12,SVG p12,98 ± 8%
O=C1c2ccccc2C(=O)c2c1ccc1nc(SCCN3CCCC3)[nH]c21 [f1-11],"Growth Percent, CCRF-CEM",CCRF-CEM,−15.39%
same,"Growth Percent, HL-60(TB)",HL-60(TB),37.41%
same,"Growth Percent, K-562",K-562,26.94%
same,"Growth Percent, MOLT-4",MOLT-4,30.94%
same,"Growth Percent, RPMI-8226",RPMI-8226,−60.17%
same,"Growth Percent, SR",SR,20.25%
same,"Growth Percent, A549/ATCC",A549/ATCC,35.52%
same,"Growth Percent, EKVX",EKVX,73.04%
same,"Growth Percent, HOP-62",HOP-62,73.74%
same,"Growth Percent, NCI-H226",NCI-H226,88.06%
same,"Growth Percent, NCI-H23",NCI-H23,66.93%
same,"Growth Percent, NCI-H322M",NCI-H322M,73.18%
same,"Growth Percent, NCI-H460",NCI-H460,34.08%
same,"Growth Percent, NCI-H522",NCI-H522,81.51%
same,"Growth Percent, COLO 205",COLO 205,17.13%
same,"Growth Percent, HCC-2998",HCC-2998,71.50%
same,"Growth Percent, HCT-116",HCT-116,38.81%
same,"Growth Percent, HCT-15",HCT-15,40.36%
same,"Growth Percent, KM12",KM12,19.62%
same,"Growth Percent, SW-620",SW-620,22.75%
same,"Growth Percent, SF-295",SF-295,76.91%
same,"Growth Percent, SF-539",SF-539,62.25%
same,"Growth Percent, SNB-19",SNB-19,60.47%
same,"Growth Percent, SNB-75",SNB-75,81.75%
same,"Growth Percent, U251",U251,69.07%
same,"Growth Percent, LOX IMVI",LOX IMVI,11.89%
same,"Growth Percent, MALME-3M",MALME-3M,112.31%
same,"Growth Percent, M14",M14,70.87%
same,"Growth Percent, SK-MEL-2",SK-MEL-2,106.62%
same,"Growth Percent, SK-MEL-28",SK-MEL-28,100.23%
same,"Growth Percent, SK-MEL-5",SK-MEL-5,78.52%
same,"Growth Percent, UACC-62",UACC-62,80.95%
same,"Growth Percent, IGROV1",IGROV1,23.20%
same,"Growth Percent, OVCAR-4",OVCAR-4,57.23%
same,"Growth Percent, OVCAR-5",OVCAR-5,87.49%
same,"Growth Percent, OVCAR-8",OVCAR-8,49.38%
same,"Growth Percent, SK-OV-3",SK-OV-3,55.57%
same,"Growth Percent, 786-0",786-0,77.12%
same,"Growth Percent, A498",A498,71.37%
same,"Growth Percent, ACHN",ACHN,34.58%
same,"Growth Percent, RXF 393",RXF 393,22.62%
same,"Growth Percent, TK-10",TK-10,36.86%
same,"Growth Percent, UO-31",UO-31,21.22%
same,"Growth Percent, PC-3",PC-3,6.90%
same,"Growth Percent, MCF7",MCF7,30.88%
same,"Growth Percent, MDA-MB-231/ATCC",MDA-MB-231/ATCC,63.52%
same,"Growth Percent, BT-549",BT-549,78.62%
same,"Growth Percent, T-47D",T-47D,83.06%
same,"Growth Percent, Mean",[1],52.08%
same,Cell survival rate (%) GBM8401,GBM8401,78 ± 10%
same,Cell survival rate (%) GBM8901,GBM8901,18 ± 2%
same,Cell survival rate (%) SVG p12,SVG p12,98 ± 1%

# From patent US8067454B2, “Thio-substituted Anthra [1, 2-d] imidazole- 6, 11-dione derivatives, preparation method and application thereof” (National Defense Medical Center, priority 2010, dated 2011)
